Results from a melting point compilation (Tetko et al.; mined from patent text by program, amines drawn as free bases though some values may be those of a salt).
Residues, ends and D or L forms follow the SMILES beside them. *: point of attachment. Tos = Cc1ccc(S(=O)(=O)*)cc1; OtBu = CC(C)(C)O*

| SMILES | melting point |
| --- | --- |
| COC(=O)C(NS(=O)(=O)c1ccc(-c2ccc(NC(=O)c3oc4cccc(C(O)CO)c4c3C)cc2)cc1)C(C)C (stereo unspecified) | 90 to 95 °C |
| O=C1c2ccc(-c3nnn[nH]3)cc2C(=O)c2cc(N3CCCCC3)ccc21 | 297 to 298 °C |
| CN(C)c1ccc(C(c2cc(C(C)(C)C)c(O)c(C(C)(C)C)c2)N2CCCCC2)cc1 (stereo unspecified) | 184 to 185 °C |
| CCOC=C(C(=O)CCl)C(=O)OCC | 86.5 °C |
| CCCCCc1nc(C)c(C(=O)OCC)n1Cc1ccc2oc(-c3ccccc3-c3nnn[nH]3)c(Br)c2c1 | 103 to 104 °C |
| CC(=O)Nc1c(-c2ccccc2C)nc2c3ccccc3ccn12 | > 270 °C |
| CC(C)(C)C(=O)c1cnn2cccnc12 | 130 to 131 °C |
| CN1CCN(c2cc(Cl)nc(-c3ccccc3)n2)CC1 | 91 to 92.5 °C |
| OC(COc1ccc(Cl)cc1Cl)(Cn1cnnc1)Cn1cncn1 (stereo unspecified) | 182 °C |
| Nc1c(F)cc(Cn2ccnc2S)cc1F | 181 to 184 °C |
| CCN1CCC(c2n[nH]c3cc(F)ccc23)CC1 | 175 to 178 °C |
| O=C(NC(CCl)CCOc1ccc(Br)cc1)c1c(F)cccc1F (stereo unspecified) | 116 to 119 °C |
| CCOC(=O)CCCNC(=O)Cn1c(-c2cccc(Cl)c2)nc2cccnc21 | 127 to 129 °C |
| COc1ccc(C2=NO[C@]3(CCOC3)C2)cc1OC1Cc2ccccc2C1 | 138 °C |
| COc1cc(-c2nc(NCC(C)C)c3c(C)c(C#N)sc3n2)cc(OC)c1OC | 182 to 184 °C |
| COc1ccc(-c2nc(=O)c3ccccc3o2)cc1 | 175 to 178 °C |
| COc1ccc(-c2nc3cnccc3[nH]2)c(OC(C)C)c1 | 220 °C |
| Cc1cc(C=C2SC(=S)NC2=O)cc(C(C)(C)C)c1O | 210 to 216 °C |
| O=C1c2cc(Cl)c(Cl)cc2C(O)N1CCCl (stereo unspecified) | 147 to 149 °C |
| COC1=C(OC)C(=O)C2=C(CC(CCCCCCCC(=O)O)(C(=O)O)C2)C1=O | 119 to 123 °C |
| CC(C(=O)O)c1ccc2cc(OCc3ccc4ccc(Cl)cc4n3)ccc2c1 (stereo unspecified) | 188 to 190 °C |

| SMILES | melting point |
| --- | --- |
| COc1cccc(OC)c1-c1cc2c(ccn2C)c2c1C(=O)NC2=O | 285 to 288 °C |
| Oc1ccc2cc(CNCc3ccccc3)ccc2c1 | 120 to 122 °C |
| CCCCCCCc1ccc(NC(=O)Nc2ccccc2C(=O)NC2CCN(C(c3ccccc3)c3ccccc3)CC2)cc1 | 173 to 175 °C |
| COc1cc2c(Cl)c(C#N)cnc2cc1OCc1ccccc1 | 282 to 284 °C |
| C=CCCn1cnc2c1c(=O)n(C)c(=O)n2C | 110 °C |
| COc1ccc(C=CC(=O)c2ccccc2O)cc1 | 81 to 83 °C |
| C=CCOc1ccc(Cl)c2c(=O)c3ccccc3sc12 | 135 to 136 °C |
| CCCCCCCCCCCCN1CN=C(NC(=O)Nc2c(C(C)C)cccc2C(C)C)N1 | 128 to 140 °C |
| O=C(NC(Cc1ccc(OCc2ccccc2)cc1)C(=O)O)c1nc2ccc(-c3ccc(Cl)cc3)cc2[nH]1 (stereo unspecified) | 260 to 261 °C |
| COc1ccc2c(c1)C(=O)C1(O)c3ccc(C(C)C)cc3OC21O (stereo unspecified) | 98 to 102 °C |
| C[C@@H](C(=O)OC(C)(C)C)N(Cc1ccccc1)S(=O)(=O)c1ccc2c(Cl)cnc(Cl)c2c1 | 92 to 96 °C |
| N#CCNCCc1c[nH]c2ccc(Cl)cc12 | 80 °C |
| CC(C)(C)OC(=O)N[C@@H](CC1CCCCC1)[C@@H]1C[C@@H](C2(O)CCCCC2)C(=O)O1 | 133 to 134 °C |
| Nc1nc2ccccc2c2c1ncn2Cc1ccccc1 | 257 to 259 °C |
| Cn1cc(-c2ccc(Cl)cc2)c(=S)c(-c2cccc(C(F)(F)F)c2)c1 | 239 to 242 °C |
| Cc1ccc(S(=O)(=O)ON=C2CC(c3ccccc3)Oc3ccccc32)cc1 (stereo unspecified) | 141 to 143 °C |
| O=C(NCc1ccc(C(F)(F)F)c(F)c1)Nc1cccc2[nH]ccc12 | 198 °C |
| CN(CC(=O)O)C(=O)c1cccc2c(Br)cccc12 | 205 °C |
| COC(=O)c1cnc(N2CCN(Cc3ccccc3)CC2)nc1C | 38 to 40 °C |
| CCc1cc(-c2[nH]c3ccc(OC)cc3c2C)cc(CC)c1O | 122 to 124 °C |
| CC(=O)OCC(C)(COC(C)=O)C(=O)O | 85 °C |

| SMILES | melting point |
| --- | --- |
| CCOC(=O)c1ccc(OCCc2c[nH]cn2)cc1 | 160 to 164 °C |
| Cc1nc2c(N)nc3ccccc3c2n1CCCCNC(=O)c1ccccc1 | 164 to 170 °C |
| Cc1cccc(C(=O)N2CC2C#N)n1 (stereo unspecified) | 120 to 122 °C |
| CC(NO)c1ccc2c(c1)Sc1cc(Cl)ccc1O2 (stereo unspecified) | 103 to 105 °C |
| O=C(Cl)COC(=O)c1ccccc1 | 25 to 26 °C |
| Cc1cccc(C(Nc2ccccc2)P(=O)(Oc2ccccc2)Oc2ccccc2)n1 (stereo unspecified) | 110 to 112 °C |
| OCc1nc2n(n1)-c1ccc(Cl)cc1N(c1ccccc1)C2 | 204 to 207 °C |
| OCc1cn2c(n1)CN=C(c1ccccn1)c1cc(I)ccc1-2 | 206 to 207 °C |
| c1cc(N=C2SCC3Cc4sccc4CN23)c2ccncc2c1 (racemic) | 198 °C |
| CCc1cc(COc2nn(Cc3ccccc3)cc2C=O)ccc1OCc1nc(-c2ccco2)oc1C | 128 to 129 °C |
| CC(C)(N)c1ccc(-c2nc(Nc3ccc(CCN4CCOCC4)cc3)ncc2C#N)cc1 | 156 °C |
| CC(C)(C)NCC(O)c1cc(Br)c(N)c(C(N)=O)c1 (stereo unspecified) | 135 to 145 °C |
| COc1cccc2cc(-c3ccc(OCCN4CCCC4)cc3)sc12 | 88 to 90 °C |
| COCC(=O)Oc1cc(=O)n(-c2ccccc2)c2ncccc12 | 155 to 157 °C |
| COC1CN(C(=O)c2cc(-c3ccccc3)c(=O)n3c2-c2sccc2C3)C1 | 192 to 193 °C |
| CCOC(=O)C1=C(COCCNS(=O)(=O)c2ccc(Cl)nc2)NC(C)=C(C(=O)OC)C1c1ccccc1Cl (stereo unspecified) | 140 °C |
| O=C(O)Cc1ccc(CCNC(=O)c2ccccc2)cc1 | 157 to 158 °C |
| COc1ccc(C=O)c(Cl)c1OCc1ccccc1 | 86 to 88 °C |
| N#Cc1ccc([N+](=O)[O-])cc1[N+](=O)[O-] | 88 to 92 °C |

Other lines, results leading:

| melting point | SMILES |
| --- | --- |
| 117 °C | O=S(=O)(c1ccccc1)c1ccc(S)cc1 |
| 115 to 117 °C | CCCCOCCCNC(=O)c1cnc(C(=O)NCC(=O)OCCCC)c(OC)c1 |
| 180 to 182 °C | Cc1oc2cc(C3CC(=O)N(C4CC4)C(=O)C3)ccc2c1C |
| 61 to 63 °C | C=C(C)c1cc(CC)n(-c2ccc([N+](=O)[O-])cc2)n1 |
| 118 to 120 °C | COc1cc2c(cc1OC(C)=O)C(=O)CCC2 |
| 120 to 123 °C | COC(=O)Nc1cc(OC2CCCC2)c(Cl)cc1F |
| 151 °C | COc1cc2c(cc1C(=O)O)OCO2 |
| 177 °C | COCCC(=O)N[C@H]1CC[C@H](CCN2CCC(c3ccc(F)c4occc34)CC2)CC1 |
| 75 to 80 °C | N#CCc1ccc(CNC(=O)C2Cc3ccccc3N2S(=O)(=O)c2ccc(-c3cccc(C(F)(F)F)c3)cc2)cc1 (stereo unspecified) |
| 135 to 136 °C | COC(=O)CCc1cc2cc(C(F)(F)F)ccc2n1S(=O)(=O)c1ccc2nc(N)sc2c1 |
| 147 to 149 °C | CCc1cccc(C)c1CNc1cc(OC)nc(NC)c1[N+](=O)[O-] |
| 178 to 180 °C | N#Cc1cccc(-c2nc(N3CCC(CC(=O)O)CC3)cc3cccnc23)c1 |
| 198 to 200 °C | CCCOc1ccccc1-c1ccc([N+](=O)[O-])c(=O)[nH]1 |
| 171 to 172 °C | Cc1cc(C(=O)C(C#N)C(=O)Nc2ccc(F)cc2)c(C)n1C (stereo unspecified) |
| 167 to 168 °C | CC(C)C(=O)NC1=NN(c2cccc(C(F)(F)F)c2)CC1 |
| 184 to 186 °C | CCC(=O)NC1Cc2cccc3ccc(OC)c(c23)C1 (stereo unspecified) |
| 196 to 198 °C | O=C(O)c1cc(NC(=O)C(CS)Cc2ccccc2)ccc1N1CCCC1 (stereo unspecified) |
| 114 to 115 °C | O=C(CCN1CCCC1)Nc1cc(-c2nnc(SCc3cccc(F)c3)o2)ccn1 |
| 120 to 124 °C | COc1cc2ncnc(N3CCC(C(C)(O)COS(=O)(=O)c4ccc(C)cc4)CC3)c2cc1OC (stereo unspecified) |
| 130 to 132 °C | COC(=O)c1cccc(Cn2ccn(C3CCc4ccccc4C3)c2=S)c1 (stereo unspecified) |

| melting point | SMILES |
| --- | --- |
| 168 to 170 °C | CNC(=O)[C@@H](O)[C@H](Sc1cc(C)ccc1N)c1ccc(C)cc1 |
| 110 to 111 °C | CC1(C(O)=Nc2cc(Cl)cc(Cl)c2)CCC1C(=O)O (stereo unspecified) |
| 109 °C | O=[N+]([O-])c1ccc(F)c(-n2nc3c(c2Cl)CCCC3)c1 |
| 232 to 235 °C | CC(=O)C1(O)CCC2C3CC(C)C4=CC(=O)CCC4(C)C3(F)CCC21C (stereo unspecified) |
| 273 to 276 °C | O=C(O)C1=Cc2cc(-c3ccc(C(F)(F)F)cc3)ccc2OCC1 |
| 112 °C | Cc1ccc2[nH]c3c(c2c1)CC(C)CC3 (stereo unspecified) |
| 212 °C | CC(C)NC(=O)N1CCc2[nH]cnc2C1c1ccncc1 (stereo unspecified) |
| 228 to 230 °C | CC1Nc2cc(-c3ccc(Cl)cc3)ccc2NC1=O (stereo unspecified) |
| 175 to 177 °C | COC(=O)c1ccc(NC(=O)c2cc(C(C)C)c(C(C)C)o2)s1 |
| 130 to 131 °C | CCOC(=O)C(C(=O)OCC)c1cccc(C(=O)c2ccccc2)c1[N+](=O)[O-] |
| 128 to 130 °C | O=C(C1CCc2nc[nH]c2C1)N1CCc2ccccc2C1 (stereo unspecified) |
| 66 to 68.5 °C | Cc1cc(C)cc(OCCCC(=O)O)c1 |
| 153 to 155 °C | Cc1ccc(S(=O)(=O)N2CCC[C@H]2C(=O)N[C@@H](CC(=O)OC(C)(C)C)C(=O)O)cc1 (Tos-Pro-Asp(OtBu)-OH) |
| 206 to 210 °C | Cc1c(N2CC[C@@H](O)[C@H](C)C2)c(F)cc2c(=O)c(C(=O)O)cn(C3CC3)c12 (relative stereo) |
| 131 °C | CC1(C)CC(CS(=O)(=O)NCC(=O)O)c2cc(OCc3ccccc3)ccc2O1 (stereo unspecified) |
| 147 to 149 °C | O=C(Nc1cc([N+](=O)[O-])cc([N+](=O)[O-])c1)C1CC1 |
| 108 °C | Cc1noc(NC(=O)c2c(O)ccc3cc(-c4cccc(O)c4)ccc23)c1C |
| 179 to 181 °C | Cc1c(C(N)=O)ncn1-c1cccc(Cl)c1 |
| 218 to 219 °C | O=C(Nc1ccc(S(=O)(=O)C(F)(F)F)cc1Cl)c1c(O)c(C23CC4CC(CC(C4)C2)C3)cc2c1CCC2 |
| 117 °C | COC(=O)CCCc1cc2nc(Cl)ccc2n1S(=O)(=O)c1ccc2nc(C)sc2c1 |
